ChEMBL document CHEMBL1144019 (Bioorg Med Chem, 2008)
Values after ≈ are worked out from the molar mass of the structure shown.

Tests used:
Haemophilus influenzae [1] = assay: Antibacterial activity against beta-lactamase negative ampicillin-resistant Haemophilus influenzae SR-11435 by standard serial agar dilution method; assay type: functional
Escherichia coli [2] = assay: Antibacterial activity against Escherichia coli SR-21003 by standard serial agar dilution method; assay type: functional
Moraxella catarrhalis = assay: Antibacterial activity against Moraxella catarrhalis ATCC 43617 by standard serial agar dilution method; assay type: functional
Staphylococcus aureus = assay: Antibacterial activity against Staphylococcus aureus Smith by standard serial agar dilution method; assay type: functional
Pseudomonas aeruginosa [3] = assay: Antibacterial activity against Pseudomonas aeruginosa SR-5393 by standard serial agar dilution method; assay type: functional
Escherichia coli [4] = assay: Antibacterial activity against Toho 2 producing Escherichia coli by standard serial agar dilution method; assay type: functional
Pseudomonas aeruginosa [5] = assay: Antibacterial activity against Pseudomonas aeruginosa SR24 by standard serial agar dilution method; assay type: functional
Enterobacter cloacae [6] = assay: Antibacterial activity against AmpC producing Enterobacter cloacae SR-4321 by standard serial agar dilution method; assay type: functional
Haemophilus influenzae [7] = assay: Antibacterial activity against Haemophilus influenzae ATCC 49766 by standard serial agar dilution method; assay type: functional
Pseudomonas aeruginosa [8] = assay: Antibacterial activity against AmpC hyperproducing Pseudomonas aeruginosa SR24-12 by standard serial agar dilution method; assay type: functional
Enterobacter cloacae [9] = assay: Antibacterial activity against Enterobacter cloacae ATCC 13047 by standard serial agar dilution method; assay type: functional
Pseudomonas aeruginosa [10] = assay: Antibacterial activity against imipenem-resistant Pseudomonas aeruginosa SR-6554 by standard serial agar dilution method; assay type: functional
Streptococcus pneumoniae = assay: Antibacterial activity against penicillin-resistant Streptococcus pneumoniae SR-16675 by standard serial agar dilution method; assay type: functional
[11] = Stability in presence of AmpC beta-lactamase; assay type: ADME
Pseudomonas aeruginosa [12] = assay: Antibacterial activity against Pseudomonas aeruginosa SR-24816 isolate by standard serial agar dilution method; assay type: functional
Pseudomonas aeruginosa [13] = assay: Antibacterial activity against Pseudomonas aeruginosa SR-24797 isolate by standard serial agar dilution method; assay type: functional
Pseudomonas aeruginosa [14] = assay: Antibacterial activity against Pseudomonas aeruginosa SR-24722 isolate by standard serial agar dilution method; assay type: functional
Pseudomonas aeruginosa [15] = assay: Antibacterial activity against Pseudomonas aeruginosa SR-24736 isolate by standard serial agar dilution method; assay type: functional
Pseudomonas aeruginosa [16] = assay: Antibacterial activity against Pseudomonas aeruginosa SR-24765 isolate by standard serial agar dilution method; assay type: functional
Pseudomonas aeruginosa [17] = assay: Antibacterial activity against Pseudomonas aeruginosa SR-24770 isolate by standard serial agar dilution method; assay type: functional
Pseudomonas aeruginosa [18] = assay: Antibacterial activity in CAZ-resistant Pseudomonas aeruginosa SR24-12 infected ICR mouse after 7 days; assay type: functional; conditions: 168 h
Pseudomonas aeruginosa [19] = assay: Antibacterial activity in CAZ-susceptible Pseudomonas aeruginosa SR24 infected ICR mouse after 7 days; assay type: functional; conditions: 168 h

SMILES	MIC (Haemophilus influenzae [1]) [µg/mL]	MIC (Escherichia coli [2]) [µg/mL]	MIC (Moraxella catarrhalis) [µg/mL]	MIC (Staphylococcus aureus) [µg/mL]	MIC (Pseudomonas aeruginosa [3]) [µg/mL]	MIC (Escherichia coli [4]) [µg/mL]	MIC (Pseudomonas aeruginosa [5]) [µg/mL]	MIC (Enterobacter cloacae [6]) [µg/mL]	MIC (Haemophilus influenzae [7]) [µg/mL]	MIC (Pseudomonas aeruginosa [8]) [µg/mL]	MIC (Enterobacter cloacae [9]) [µg/mL]	MIC (Pseudomonas aeruginosa [10]) [µg/mL]	MIC (Streptococcus pneumoniae) [µg/mL]	Stability [11] [%]	MIC (Pseudomonas aeruginosa [12]) [µg/mL]	MIC (Pseudomonas aeruginosa [13]) [µg/mL]	MIC (Pseudomonas aeruginosa [14]) [µg/mL]	MIC (Pseudomonas aeruginosa [15]) [µg/mL]	MIC (Pseudomonas aeruginosa [16]) [µg/mL]	MIC (Pseudomonas aeruginosa [17]) [µg/mL]	other results
C[C@H](O/N=C(\C(=O)N[C@@H]1C(=O)N2C(C(=O)[O-])=C(C[n+]3cccc4c3ccn4CCO)CS[C@H]12)c1nc(N)sc1Cl)C(=O)O	0.063 (≈ 0.0969 µM)	0.25 (≈ 0.385 µM)	0.016 (≈ 0.0246 µM)	2 (≈ 3.08 µM)	4 (≈ 6.15 µM)	2 (≈ 3.08 µM)	1 (≈ 1.54 µM)	4 (≈ 6.15 µM)	0.032 (≈ 0.0492 µM)	8 (≈ 12.3 µM)	0.5 (≈ 0.769 µM)	16 (≈ 24.6 µM)	4 (≈ 6.15 µM)								
CNCCCn1ccc2c1ccc[n+]2CC1=C(C(=O)[O-])N2C(=O)[C@@H](NC(=O)/C(=N\O[C@@H](C)C(=O)O)c3nc(N)sc3Cl)[C@H]2SC1	0.063 (≈ 0.093 µM)	0.5 (≈ 0.738 µM)	0.016 (≈ 0.0236 µM)	2 (≈ 2.95 µM)	2 (≈ 2.95 µM)	2 (≈ 2.95 µM)	1 (≈ 1.48 µM)	2 (≈ 2.95 µM)	0.032 (≈ 0.0473 µM)	4 (≈ 5.91 µM)	0.5 (≈ 0.738 µM)	8 (≈ 11.8 µM)	4 (≈ 5.91 µM)	78.4	4 (≈ 5.91 µM)	8 (≈ 11.8 µM)	8 (≈ 11.8 µM)	8 (≈ 11.8 µM)	8 (≈ 11.8 µM)	8 (≈ 11.8 µM)	
CNCCn1ccc2c1ccc[n+]2CC1=C(C(=O)[O-])N2C(=O)[C@@H](NC(=O)/C(=N\O[C@@H](C)C(=O)O)c3nc(N)sc3Cl)[C@H]2SC1	0.125 (≈ 0.188 µM)	0.5 (≈ 0.754 µM)	0.032 (≈ 0.0483 µM)	2 (≈ 3.02 µM)	2 (≈ 3.02 µM)	2 (≈ 3.02 µM)	1 (≈ 1.51 µM)	2 (≈ 3.02 µM)	0.032 (≈ 0.0483 µM)	4 (≈ 6.03 µM)	0.5 (≈ 0.754 µM)	8 (≈ 12.1 µM)	4 (≈ 6.03 µM)								
CNCCCn1c(N)nc2c1ccc[n+]2CC1=C(C(=O)[O-])N2C(=O)[C@@H](NC(=O)/C(=N\O[C@@H](C)C(=O)O)c3nc(N)sc3Cl)[C@H]2SC1	0.063 (≈ 0.0909 µM)	0.25 (≈ 0.361 µM)	0.016 (≈ 0.0231 µM)	2 (≈ 2.89 µM)	2 (≈ 2.89 µM)	2 (≈ 2.89 µM)	0.5 (≈ 0.721 µM)	2 (≈ 2.89 µM)	0.032 (≈ 0.0462 µM)	4 (≈ 5.77 µM)	0.5 (≈ 0.721 µM)	8 (≈ 11.5 µM)	2 (≈ 2.89 µM)	90.2	2 (≈ 2.89 µM)	4 (≈ 5.77 µM)	4 (≈ 5.77 µM)	2 (≈ 2.89 µM)	4 (≈ 5.77 µM)	4 (≈ 5.77 µM)	ED50 (Pseudomonas aeruginosa [18]): 4.69 mg/kg; ED50 (Pseudomonas aeruginosa [19]): 1.33 mg/kg
C[C@H](O/N=C(\C(=O)N[C@@H]1C(=O)N2C(C(=O)[O-])=C(C[n+]3cccc4c3ccn4CC(=O)O)CS[C@H]12)c1nc(N)sc1Cl)C(=O)O	0.063 (≈ 0.0949 µM)	0.5 (≈ 0.753 µM)	0.032 (≈ 0.0482 µM)	8 (≈ 12 µM)	4 (≈ 6.02 µM)	4 (≈ 6.02 µM)	2 (≈ 3.01 µM)	16 (≈ 24.1 µM)	0.016 (≈ 0.0241 µM)	32 (≈ 48.2 µM)	1 (≈ 1.51 µM)	32 (≈ 48.2 µM)	4 (≈ 6.02 µM)								
CC(C)(O/N=C(\C(=O)N[C@@H]1C(=O)N2C(C(=O)[O-])=C(C[n+]3ccccc3)CS[C@H]12)c1csc(N)n1)C(=O)O [CEFTAZIDIME]	0.125 (≈ 0.229 µM)	0.25 (≈ 0.457 µM)	0.063 (≈ 0.115 µM)	8 (≈ 14.6 µM)	2 (≈ 3.66 µM)	1 (≈ 1.83 µM)	0.5 (≈ 0.915 µM)	64 (≈ 117 µM)	0.063 (≈ 0.115 µM)	64 (≈ 117 µM)	8 (≈ 14.6 µM)	32 (≈ 58.5 µM)	8 (≈ 14.6 µM)	18	64 (≈ 117 µM)	64 (≈ 117 µM)	64 (≈ 117 µM)	128 (≈ 234 µM)	128 (≈ 234 µM)	64 (≈ 117 µM)	ED50 (Pseudomonas aeruginosa [18]): > 128 mg/kg; ED50 (Pseudomonas aeruginosa [19]): 2.83 mg/kg
